Patent publication US20110318768A1, “METHOD FOR DETERMINING SENSITIVITY OF TUMOR CELLS TO TYROSINE KINASE INHIBITOR AND COMPUTER PROGRAM PRODUCT” (SYSMEX CORPORATION, priority 2010, published 2011)

Key:
Test in all cases: Tyrosine kinase activity inhibition rate in cell membrane fraction (Poly-Glu4-Tyr substrate)
Type in all cases: biochemical
[1] = tested on: tyrosine kinase in cell membrane fraction of UACC812; conditions: for Inhibition rate: UACC812, 25 μM kinase inhibitor, 25 μM ATP
Experimental: (§1) Breast cancer cell lines shown in Table 3 were cultured in a 150 mm dish so as to be about 80% confluent, the cells were recovered using PBS and a scraper, and a cell pellet was obtained by centrifugal operation (900×g, for 5 minutes, at 4° C.). The pellet was frozen with liquid nitrogen and stored at −80° C. until preparation of the measurement sample.
(§2) 500 μl of NP40 (−) solubilized buffer (20 mM HEPES (pH 7.4)), (w/v) % glycerol, 0.2% protease inhibitor cocktail (#P8340: Sigma-Aldrich (product composition: 104 mM AEBSF, 80 μM aprotinin, 4 mM bestatin, 1.4 mM E-64, 2 mM leupeptin, 1.5 mM Pepstatin A), 50 mM NaF and 200 μM Na3VO4) was added to the cell pellet, followed by stirring for 2 seconds three times using a vortex mixer. After being allowed to stand for 10 minutes, the soluble fraction was removed by centrifugal operation (at 20000×g, for 30 minutes, at 4° C.). The obtained pellet was resuspended in 500 μl of NP40 (−) solubilized buffer, the soluble fraction was again removed by centrifugal operation (at 20000×g, for 20 minutes, at 4° C.), and the pellet was washed. The pellet was resuspended by adding 500 μl of NP40 (+) solubilized buffer (a buffer prepared by adding NP-40 to the NP40 (−) solubilized buffer at a final concentration of 1%) to the pellet, pipetting fifty times, and vortexing for 2 seconds three times. After being allowed to stand for 10 minutes, a cell membrane fraction containing a membrane protein was obtained by centrifugal operation (at 20000×g, for 40 minutes, at 4° C.). The protein concentration of the fraction was measured by DC protein assay (#500-0116 JA: Bio-Rad) and the fraction was used as a sample for kinase activity measurement. The sample was frozen with liquid nitrogen and stored at −80° C. until used for the following kinase activity measurement.
(§3) NeutrAvidin Coated Plates (HBC) (96 white plate; #15509: Pierce) were washed three times with 300 μl of TBS-T (20 mM Tris-HCl (pH 7.4)), 150 mM NaCl, 0.1% Tween), and then 100 μl of Poly-Glu4-Tyr biotin conjugate (#12440: Upstate) which had been diluted to 1 μg/ml with TBS (20 mM Tris-HCl (pH 7.4), 150 mM NaCl) was added to the wells. After shaking at 37° C. and 400 rpm for 90 minutes, the wells were washed with 300 μl of TBS-T three times and a measuring plate was obtained.
(§4) The measurement sample was diluted with a kinase buffer (20 mM HEPES (pH 7.4), 25 mM MgCl2, 1.25 mM MnCl2, 250 μM Na3VO4, 12.5 (w/v) % glycerol) so as to adjust the protein concentration to 6.25 μg/ml. The diluted measurement sample was transferred to wells of a 96 well V bottom plate. A DMSO solution (inhibitor concentration: 5 mM) containing one type of tyrosine kinase inhibitors (Inhibitors 1 to 10 shown in Table 6) was added to the wells at a ratio of 1:160 based on the diluted measurement sample solution, followed by mixing thereof. As the control, DMSO was added to the diluted measurement sample at the same ratio as the solution of the inhibitor. The used tyrosine kinase inhibitors are represented as Inhibitors 1 to 10 in Table 6.
(§5) After addition of the inhibitors, a mixed solution of the measurement sample and the inhibitor was allowed to stand at room temperature for 10 minutes. 40 μl of the mixed solution was transferred to wells of the measuring plate and 10 μl of an ATP solution (20 mM HEPES (pH 7.4), […]) as the phosphate group donor was added to the wells.
(§6) The composition of the solution in the wells is as follows: protein concentration: 5 μg/ml, 20 mM HEPES (pH 7.4), 20 mM MgCl2, 1 mM MnCl2, 200 μM Na3VO4, 10 (w/v) % glycerol, 25 μM ATP, 25 μM kinase inhibitor.
(§7) After shaking the measuring plate at 37° C. and 400 rpm for 60 minutes, the solution was removed from the measuring plate, and the wells were washed with 300 μl of TBS-T three times. 100 μl of Starting Block T20 (TBS) (#37543: Pierce) as a blocking solution was added to the wells, followed by blocking at 37° C. and 400 rpm for 10 minutes. The blocking solution was removed from the measuring plate. […]

[2] = tested on: tyrosine kinase in cell membrane fraction of HCC1428; conditions: for Inhibition rate: 25 μM kinase inhibitor, 25 μM ATP
Experimental: as §1, §2, §3, §4, §5, §6, §7

[3] = tested on: tyrosine kinase in cell membrane fraction of HCC1806; conditions: for Inhibition rate: 25 μM kinase inhibitor, 25 μM ATP
Experimental: as §1, §2, §3, §4, §5, §6, §7

[4] = tested on: tyrosine kinase in cell membrane fraction of HCC1569; conditions: for Inhibition rate: 25 μM kinase inhibitor, 25 μM ATP
Experimental: as §1, §2, §3, §4, §5, §6, §7

[5] = tested on: tyrosine kinase in cell membrane fraction of MDA-MB-435S; conditions: for Inhibition rate: 25 μM kinase inhibitor, 25 μM ATP
Experimental: as §1, §2, §3, §4, §5, §6, §7

[6] = tested on: tyrosine kinase in cell membrane fraction of AU565; conditions: for Inhibition rate: 25 μM kinase inhibitor, 25 μM ATP
Experimental: as §1, §2, §3, §4, §5, §6, §7

[7] = tested on: tyrosine kinase in cell membrane fraction of BT-20; conditions: for Inhibition rate: 25 μM kinase inhibitor, 25 μM ATP
Experimental: as §1, §2, §3, §4, §5, §6, §7

[8] = tested on: tyrosine kinase in cell membrane fraction of SK-BR-3; conditions: for Inhibition rate: 25 μM kinase inhibitor, 25 μM ATP
Experimental: as §1, §2, §3, §4, §5, §6, §7

[9] = tested on: tyrosine kinase in cell membrane fraction of BT-483; conditions: for Inhibition rate: 25 μM kinase inhibitor, 25 μM ATP
Experimental: as §1, §2, §3, §4, §5, §6, §7

[10] = tested on: tyrosine kinase in cell membrane fraction of MDA-MB-415; conditions: for Inhibition rate: 25 μM kinase inhibitor, 25 μM ATP
Experimental: as §1, §2, §3, §4, §5, §6, §7

[11] = tested on: tyrosine kinase in cell membrane fraction of HCC1937; conditions: for Inhibition rate: 25 μM kinase inhibitor, 25 μM ATP
Experimental: as §1, §2, §3, §4, §5, §6, §7

[12] = tested on: tyrosine kinase in cell membrane fraction of BT-549; conditions: for Inhibition rate: 25 μM kinase inhibitor, 25 μM ATP
Experimental: as §1, §2, §3, §4, §5, §6, §7

Compound: COc1cc2ncnc(Nc3cccc(Cl)c3)c2cc1OC [Inhibitor 1]
- Inhibition rate [1]: 49.3%
- Inhibition rate [2]: 19.3%
- Inhibition rate [3]: 57.9%
- Inhibition rate [4]: 44.7%
- Inhibition rate [5]: 33.4%
- Inhibition rate [6]: 29.3%
- Inhibition rate [7]: 47.2%
- Inhibition rate [8]: 46.8%
- Inhibition rate [9]: 54.7%
- Inhibition rate [10]: 41.3%
- Inhibition rate [11]: 46.0%
- Inhibition rate [12]: 52.9%

Compound: COc1cc2c(cc1OC)-c1[nH]nc(Nc3cccc(F)c3)c1C2 [Inhibitor 6]
- Inhibition rate [1]: 61.4%
- Inhibition rate [2]: 30.0%
- Inhibition rate [3]: 38.8%
- Inhibition rate [4]: 57.8%
- Inhibition rate [5]: 40.6%
- Inhibition rate [6]: 18.4%
- Inhibition rate [7]: 28.1%
- Inhibition rate [8]: 45.3%
- Inhibition rate [9]: 62.9%
- Inhibition rate [10]: 50.9%
- Inhibition rate [11]: 41.8%
- Inhibition rate [12]: 50.1%

Compound: CS(=O)(=O)CCNCc1nc(-c2ccc3ncnc(Nc4ccc(OCc5cccc(F)c5)c(Cl)c4)c3c2)cs1.Cl.Cl [Inhibitor 5, N-[3-chloro-4-[(3-fluorophenyl)methoxy]phenyl]-6-[2-[[[2-(methylsulfonyl)ethyl]amino]methyl]-4-thiazolyl]-4-quinazolineamine dihydrochloride]
- Inhibition rate [1]: 80.4%
- Inhibition rate [2]: 56.1%
- Inhibition rate [3]: 68.4%
- Inhibition rate [4]: 60.7%
- Inhibition rate [5]: 57.8%
- Inhibition rate [6]: 40.9%
- Inhibition rate [7]: 56.3%
- Inhibition rate [8]: 75.7%
- Inhibition rate [9]: 66.9%
- Inhibition rate [10]: 48.1%
- Inhibition rate [11]: 42.3%
- Inhibition rate [12]: 68.8%

Compound: Cc1[nH]c(/C=C2\C(=O)Nc3ccc(S(=O)(=O)N(C)c4cccc(Cl)c4)cc32)c(C)c1C(=O)N1CCN(C)CC1 [Inhibitor 9]
- Inhibition rate [1]: 78.1%
- Inhibition rate [2]: 47.5%
- Inhibition rate [3]: 77.3%
- Inhibition rate [4]: 67.0%
- Inhibition rate [5]: 80.3%
- Inhibition rate [6]: 55.6%
- Inhibition rate [7]: 51.4%
- Inhibition rate [8]: 66.1%
- Inhibition rate [9]: 68.6%
- Inhibition rate [10]: 56.7%
- Inhibition rate [11]: 52.6%
- Inhibition rate [12]: 81.4%

Compound: CN(C)c1cc2c(Nc3ccc4c(cnn4Cc4ccccc4)c3)ncnc2cn1 [Inhibitor 4, N4-(1-benzyl-1H-indazol-5-yl)-N6,N6-dimethyl-pyrido-[3,4-d]-pyrimidine-4,6-diamine]
- Inhibition rate [1]: 59.4%
- Inhibition rate [2]: 7.9%
- Inhibition rate [3]: 33.7%
- Inhibition rate [4]: 37.9%
- Inhibition rate [5]: 22.6%
- Inhibition rate [6]: −3.8%
- Inhibition rate [7]: 32.4%
- Inhibition rate [8]: 31.4%
- Inhibition rate [9]: 52.7%
- Inhibition rate [10]: 19.6%
- Inhibition rate [11]: 17.9%
- Inhibition rate [12]: 48.8%

Compound: CN1CCC(Nc2ncc3ncnc(Nc4ccc(F)c(Cl)c4)c3n2)CC1 [Inhibitor 2]
- Inhibition rate [1]: 30.3%
- Inhibition rate [2]: 6.8%
- Inhibition rate [3]: 29.6%
- Inhibition rate [4]: 25.0%
- Inhibition rate [5]: 3.8%
- Inhibition rate [6]: 7.7%
- Inhibition rate [7]: 18.9%
- Inhibition rate [8]: 18.8%
- Inhibition rate [9]: 40.3%
- Inhibition rate [10]: 25.0%
- Inhibition rate [11]: 28.1%
- Inhibition rate [12]: 21.7%

Compound: Cc1cc(F)c(Nc2ncnc3cc(OCc4ccccc4)ccc23)cc1O.Cl [Inhibitor 8]
- Inhibition rate [1]: 21.6%
- Inhibition rate [2]: 2.2%
- Inhibition rate [3]: 6.4%
- Inhibition rate [4]: 15.5%
- Inhibition rate [5]: 9.8%
- Inhibition rate [6]: 11.5%
- Inhibition rate [7]: 18.5%
- Inhibition rate [8]: 25.9%
- Inhibition rate [9]: 27.2%
- Inhibition rate [10]: 14.0%
- Inhibition rate [11]: 11.1%
- Inhibition rate [12]: 5.1%

Compound: COc1cc2ncnc(Nc3ccc(Oc4ccccc4)cc3)c2cc1OC [Inhibitor 10, 4-(4′-phenoxyanilino)-6,7-dimethoxyquinazoline]
- Inhibition rate [1]: 81.5%
- Example 1 Inhibitory capacity of Src inhibitor ([1]; UACC-812): high (the term “high” means a cell line whose inhibition rate of the Src inhibitor is more than the threshold value)
- Example 1 Inhibitory capacity of Src inhibitor [2]: high (the term “high” means a cell line whose inhibition rate of the Src inhibitor is more than the threshold value)
- Inhibition rate [2]: 43.7%
- Example 1 Inhibitory capacity of Src inhibitor [3]: high (the term “high” means a cell line whose inhibition rate of the Src inhibitor is more than the threshold value)
- Inhibition rate [3]: 67.1%
- Example 1 Inhibitory capacity of Src inhibitor [4]: high (the term “high” means a cell line whose inhibition rate of the Src inhibitor is more than the threshold value)
- Inhibition rate [4]: 71.3%
- Example 1 Inhibitory capacity of Src inhibitor [5]: high (the term “high” means a cell line whose inhibition rate of the Src inhibitor is more than the threshold value)
- Inhibition rate [5]: 44.9%
- Example 1 Inhibitory capacity of Src inhibitor [6]: low (the term “low” means a cell line whose inhibition rate of the Src inhibitor is lower than the threshold value (=43.4%))
- Inhibition rate [6]: 36.8%
- Example 1 Inhibitory capacity of Src inhibitor [7]: high (the term “high” means a cell line whose inhibition rate of the Src inhibitor is more than the threshold value)
- Inhibition rate [7]: 56.6%
- Example 1 Inhibitory capacity of Src inhibitor [8]: low (the term “low” means a cell line whose inhibition rate of the Src inhibitor is lower than the threshold value (=43.4%))
- Inhibition rate [8]: 43.3%
- Example 1 Inhibitory capacity of Src inhibitor [9]: high (the term “high” means a cell line whose inhibition rate of the Src inhibitor is more than the threshold value)
- Inhibition rate [9]: 78.5%
- Example 1 Inhibitory capacity of Src inhibitor [10]: high (the term “high” means a cell line whose inhibition rate of the Src inhibitor is more than the threshold value)
- Inhibition rate [10]: 68.6%
- Example 1 Inhibitory capacity of Src inhibitor [11]: high (the term “high” means a cell line whose inhibition rate of the Src inhibitor is more than the threshold value)
- Inhibition rate [11]: 50.1%
- Example 1 Inhibitory capacity of Src inhibitor [12]: high (the term “high” means a cell line whose inhibition rate of the Src inhibitor is more than the threshold value)
- Inhibition rate [12]: 60.6%
